Test system: ⍺4β7
Test: SPR: inhibition by linear peptides of soluble ⍺4β7 binding to a MAdCAM-Ig surface
Settings: Fig 7F, 7G
Excerpt: To determine if this is the case, we employed an SPR -based assay. Biosensor surfaces were coated with either CD4 D1D2 or a 42 aa cyclic V2 peptide derived from the subtype E 92TH023 gp120 (cV2 92TH023). A third surface coated with MAdCAM-Ig was employed as a positive control. Soluble ⍺4β7 was passed over these surfaces. We then evaluated the capacity of staggered 15 aa peptides that span either CD4 D2 or gp120 V2 to inhibit this interaction (Fig 7A).
Fig 7 Reciprocal inhibition of gp120 V2 and CD4 binding to ⍺4β7 by D2 and V2 peptides. SPR measurements of soluble ⍺4β7 (analyte) binding to biosensor surfaces coated with CD4 D1D2, 92TH023 cyclic peptide, or MAdCAM-Ig in the absence or presence of either CD4 D2 or gp120 V2 peptides, as indicated. (A) List of overlapping 15 aa peptides corresponding to residues 157–187 of CD4 and residues 158–192 of gp120 V2 (subtype B consensus sequence). (B) Binding of ⍺4β7 to sCD4 D1D2 +/- CD4 D2 peptides. X-axis indicates ⍺4β7 mass bound (RU) at the end of the association phase. (C) Binding of ⍺4β7 to 92TH023 +/- gp120 V2 peptides. (D) Binding of ⍺4β7 to sCD4 D1D2 +/- gp120 V2 peptides. (E) Binding of ⍺4β7 to 92TH023 +/- CD4 D2 peptides. […]
Experiments were performed using a Biacore 3000 instrument (Cytiva Life Sciences) using CM4 or CM5 sensor chips. The data were evaluated using BIAevaluation 4.1.1 software (Cytiva Life Sciences). […]

## QKKVEFKIDIVVLA [CD4 P42, linear CD4 D2 peptide, residues 165-178, G β-strand]
  inhibition of MAdCAM-Ig binding to ⍺4β7 (in words): inhibit MAdCAM-Ig binding to ⍺4β7
